{
  "source": "ChEMBL document CHEMBL1201861",
  "about": "“Genomics of Drug Sensitity in Cancer screening data, Wellcome Trust Sanger Institute”",
  "data": [
    {"tested_on": "A253 cell line", "experiment": "cells", "format": "functional, cell-based, Homo sapiens", "details": "Homo sapiens, A253", "units": {"IC50": "nM"}, "description": "SANGER: Inhibition of human A253 cell growth in a cell viability assay.", "values": [
      {"smiles": "COc1cccc2c1C(=O)c1c(O)c3c(c(O)c1C2=O)C[C@@](O)(C(=O)CO)C[C@@H]3O[C@H]1C[C@H](N)[C@H](O)[C@H](C)O1", "note": "[DOXORUBICIN]", "IC50": 46.1}
    ]},
    {"tested_on": "GB-1", "experiment": "cells", "format": "functional, cell-based, Homo sapiens", "details": "Homo sapiens, GB-1", "units": {"IC50": "nM"}, "description": "SANGER: Inhibition of human GB-1 cell growth in a cell viability assay.", "values": [
      {"smiles": "COc1cccc2c1C(=O)c1c(O)c3c(c(O)c1C2=O)C[C@@](O)(C(=O)CO)C[C@@H]3O[C@H]1C[C@H](N)[C@H](O)[C@H](C)O1", "note": "[DOXORUBICIN]", "IC50": 213}
    ]},
    {"tested_on": "RPMI-8866", "experiment": "cells", "format": "functional, cell-based, Homo sapiens", "details": "Homo sapiens, RPMI-8866", "units": {"IC50": "nM"}, "description": "SANGER: Inhibition of human RPMI-8866 cell growth in a cell viability assay.", "values": [
      {"smiles": "COc1cccc2c1C(=O)c1c(O)c3c(c(O)c1C2=O)C[C@@](O)(C(=O)CO)C[C@@H]3O[C@H]1C[C@H](N)[C@H](O)[C@H](C)O1", "note": "[DOXORUBICIN]", "IC50": 192}
    ]},
    {"tested_on": "SCC-15", "experiment": "cells", "format": "functional, cell-based, Homo sapiens", "details": "Homo sapiens, SCC-15", "units": {"IC50": "nM"}, "description": "SANGER: Inhibition of human SCC-15 cell growth in a cell viability assay.", "values": [
      {"smiles": "COc1cccc2c1C(=O)c1c(O)c3c(c(O)c1C2=O)C[C@@](O)(C(=O)CO)C[C@@H]3O[C@H]1C[C@H](N)[C@H](O)[C@H](C)O1", "note": "[DOXORUBICIN]", "IC50": 188}
    ]},
    {"tested_on": "MHH-NB-11", "experiment": "cells", "format": "functional, cell-based, Homo sapiens", "details": "Homo sapiens, MHH-NB-11", "units": {"IC50": "nM"}, "description": "SANGER: Inhibition of human MHH-NB-11 cell growth in a cell viability assay.", "values": [
      {"smiles": "COc1cccc2c1C(=O)c1c(O)c3c(c(O)c1C2=O)C[C@@](O)(C(=O)CO)C[C@@H]3O[C@H]1C[C@H](N)[C@H](O)[C@H](C)O1", "note": "[DOXORUBICIN]", "IC50": 220}
    ]},
    {"tested_on": "NKM-1", "experiment": "cells", "format": "functional, cell-based, Homo sapiens", "details": "Homo sapiens, NKM-1", "units": {"IC50": "nM"}, "description": "SANGER: Inhibition of human NKM-1 cell growth in a cell viability assay.", "values": [
      {"smiles": "COc1cccc2c1C(=O)c1c(O)c3c(c(O)c1C2=O)C[C@@](O)(C(=O)CO)C[C@@H]3O[C@H]1C[C@H](N)[C@H](O)[C@H](C)O1", "note": "[DOXORUBICIN]", "IC50": 29.5}
    ]},
    {"tested_on": "VA-ES-BJ", "experiment": "cells", "format": "functional, cell-based, Homo sapiens", "details": "Homo sapiens, VA-ES-BJ", "units": {"IC50": "nM"}, "description": "SANGER: Inhibition of human VA-ES-BJ cell growth in a cell viability assay.", "values": [
      {"smiles": "COc1cccc2c1C(=O)c1c(O)c3c(c(O)c1C2=O)C[C@@](O)(C(=O)CO)C[C@@H]3O[C@H]1C[C@H](N)[C@H](O)[C@H](C)O1", "note": "[DOXORUBICIN]", "IC50": 33.4}
    ]},
    {"tested_on": "ONS-76", "experiment": "cells", "format": "functional, cell-based, Homo sapiens", "details": "Homo sapiens, ONS-76", "units": {"IC50": "nM"}, "description": "SANGER: Inhibition of human ONS-76 cell growth in a cell viability assay.", "values": [
      {"smiles": "COc1cccc2c1C(=O)c1c(O)c3c(c(O)c1C2=O)C[C@@](O)(C(=O)CO)C[C@@H]3O[C@H]1C[C@H](N)[C@H](O)[C@H](C)O1", "note": "[DOXORUBICIN]", "IC50": 18.9}
    ]},
    {"tested_on": "TGBC24TKB", "experiment": "cells", "format": "functional, cell-based, Homo sapiens", "details": "Homo sapiens, TGBC24TKB", "units": {"IC50": "nM"}, "description": "SANGER: Inhibition of human TGBC24TKB cell growth in a cell viability assay.", "values": [
      {"smiles": "COc1cccc2c1C(=O)c1c(O)c3c(c(O)c1C2=O)C[C@@](O)(C(=O)CO)C[C@@H]3O[C@H]1C[C@H](N)[C@H](O)[C@H](C)O1", "note": "[DOXORUBICIN]", "IC50": "> 1020"}
    ]},
    {"tested_on": "COLO-800", "experiment": "cells", "format": "functional, cell-based, Homo sapiens", "details": "Homo sapiens, COLO-800", "units": {"IC50": "nM"}, "description": "SANGER: Inhibition of human COLO-800 cell growth in a cell viability assay.", "values": [
      {"smiles": "COc1cccc2c1C(=O)c1c(O)c3c(c(O)c1C2=O)C[C@@](O)(C(=O)CO)C[C@@H]3O[C@H]1C[C@H](N)[C@H](O)[C@H](C)O1", "note": "[DOXORUBICIN]", "IC50": 172}
    ]},
    {"tested_on": "no-11", "experiment": "cells", "format": "functional, cell-based, Homo sapiens", "details": "Homo sapiens", "units": {"IC50": "nM"}, "description": "SANGER: Inhibition of human no-11 cell growth in a cell viability assay.", "values": [
      {"smiles": "COc1cccc2c1C(=O)c1c(O)c3c(c(O)c1C2=O)C[C@@](O)(C(=O)CO)C[C@@H]3O[C@H]1C[C@H](N)[C@H](O)[C@H](C)O1", "note": "[DOXORUBICIN]", "IC50": 322}
    ]},
    {"tested_on": "BB49-HNC", "experiment": "cells", "format": "functional, cell-based, Homo sapiens", "details": "Homo sapiens, BB49-HNC", "units": {"IC50": "nM"}, "description": "SANGER: Inhibition of human BB49-HNC cell growth in a cell viability assay.", "values": [
      {"smiles": "COc1cccc2c1C(=O)c1c(O)c3c(c(O)c1C2=O)C[C@@](O)(C(=O)CO)C[C@@H]3O[C@H]1C[C@H](N)[C@H](O)[C@H](C)O1", "note": "[DOXORUBICIN]", "IC50": "> 1020"}
    ]},
    {"tested_on": "SNU1", "experiment": "cells", "format": "functional, cell-based, Homo sapiens", "details": "Homo sapiens, SNU1", "units": {"IC50": "nM"}, "description": "SANGER: Inhibition of human NCI-SNU-1 cell growth in a cell viability assay.", "values": [
      {"smiles": "COc1cccc2c1C(=O)c1c(O)c3c(c(O)c1C2=O)C[C@@](O)(C(=O)CO)C[C@@H]3O[C@H]1C[C@H](N)[C@H](O)[C@H](C)O1", "note": "[DOXORUBICIN]", "IC50": 65.9}
    ]},
    {"tested_on": "EC-GI-10", "experiment": "cells", "format": "functional, cell-based, Homo sapiens", "details": "Homo sapiens, EC-GI-10", "units": {"IC50": "nM"}, "description": "SANGER: Inhibition of human EC-GI-10 cell growth in a cell viability assay.", "values": [
      {"smiles": "COc1cccc2c1C(=O)c1c(O)c3c(c(O)c1C2=O)C[C@@](O)(C(=O)CO)C[C@@H]3O[C@H]1C[C@H](N)[C@H](O)[C@H](C)O1", "note": "[DOXORUBICIN]", "IC50": "> 1020"}
    ]},
    {"tested_on": "LB1047-RCC", "experiment": "cells", "format": "functional, cell-based, Homo sapiens", "details": "Homo sapiens, LB1047-RCC", "units": {"IC50": "nM"}, "description": "SANGER: Inhibition of human LB1047-RCC cell growth in a cell viability assay.", "values": [
      {"smiles": "COc1cccc2c1C(=O)c1c(O)c3c(c(O)c1C2=O)C[C@@](O)(C(=O)CO)C[C@@H]3O[C@H]1C[C@H](N)[C@H](O)[C@H](C)O1", "note": "[DOXORUBICIN]", "IC50": 36}
    ]},
    {"tested_on": "KLE", "experiment": "cells", "format": "functional, cell-based, Homo sapiens", "details": "Homo sapiens, KLE", "units": {"IC50": "nM"}, "description": "SANGER: Inhibition of human KLE cell growth in a cell viability assay.", "values": [
      {"smiles": "COc1cccc2c1C(=O)c1c(O)c3c(c(O)c1C2=O)C[C@@](O)(C(=O)CO)C[C@@H]3O[C@H]1C[C@H](N)[C@H](O)[C@H](C)O1", "note": "[DOXORUBICIN]", "IC50": 175}
    ]},
    {"tested_on": "CTV-1", "experiment": "cells", "format": "functional, cell-based, Homo sapiens", "details": "Homo sapiens, CTV-1", "units": {"IC50": "nM"}, "description": "SANGER: Inhibition of human CTV-1 cell growth in a cell viability assay.", "values": [
      {"smiles": "COc1cccc2c1C(=O)c1c(O)c3c(c(O)c1C2=O)C[C@@](O)(C(=O)CO)C[C@@H]3O[C@H]1C[C@H](N)[C@H](O)[C@H](C)O1", "note": "[DOXORUBICIN]", "IC50": 16.1}
    ]},
    {"tested_on": "TE-12", "experiment": "cells", "format": "functional, cell-based, Homo sapiens", "details": "Homo sapiens, TE-12", "units": {"IC50": "nM"}, "description": "SANGER: Inhibition of human TE-12 cell growth in a cell viability assay.", "values": [
      {"smiles": "COc1cccc2c1C(=O)c1c(O)c3c(c(O)c1C2=O)C[C@@](O)(C(=O)CO)C[C@@H]3O[C@H]1C[C@H](N)[C@H](O)[C@H](C)O1", "note": "[DOXORUBICIN]", "IC50": 81.1}
    ]},
    {"tested_on": "CP66-MEL", "experiment": "cells", "format": "functional, cell-based, Homo sapiens", "details": "Homo sapiens, CP66-MEL", "units": {"IC50": "nM"}, "description": "SANGER: Inhibition of human CP66-MEL cell growth in a cell viability assay.", "values": [
      {"smiles": "COc1cccc2c1C(=O)c1c(O)c3c(c(O)c1C2=O)C[C@@](O)(C(=O)CO)C[C@@H]3O[C@H]1C[C@H](N)[C@H](O)[C@H](C)O1", "note": "[DOXORUBICIN]", "IC50": "> 1020"}
    ]},
    {"tested_on": "EOL1", "experiment": "cells", "format": "functional, cell-based, Homo sapiens", "details": "Homo sapiens, EOL1", "units": {"IC50": "nM"}, "description": "SANGER: Inhibition of human EoL-1-cell cell growth in a cell viability assay.", "values": [
      {"smiles": "COc1cccc2c1C(=O)c1c(O)c3c(c(O)c1C2=O)C[C@@](O)(C(=O)CO)C[C@@H]3O[C@H]1C[C@H](N)[C@H](O)[C@H](C)O1", "note": "[DOXORUBICIN]", "IC50": 27.8}
    ]},
    {"tested_on": "SF-126", "experiment": "cells", "format": "functional, cell-based, Homo sapiens", "details": "Homo sapiens, SF-126", "units": {"IC50": "nM"}, "description": "SANGER: Inhibition of human SF126 cell growth in a cell viability assay.", "values": [
      {"smiles": "COc1cccc2c1C(=O)c1c(O)c3c(c(O)c1C2=O)C[C@@](O)(C(=O)CO)C[C@@H]3O[C@H]1C[C@H](N)[C@H](O)[C@H](C)O1", "note": "[DOXORUBICIN]", "IC50": 105}
    ]},
    {"tested_on": "NCI-H510A", "experiment": "cells", "format": "functional, cell-based, Homo sapiens", "details": "Homo sapiens, NCI-H510A", "units": {"IC50": "nM"}, "description": "SANGER: Inhibition of human NCI-H510A cell growth in a cell viability assay.", "values": [
      {"smiles": "COc1cccc2c1C(=O)c1c(O)c3c(c(O)c1C2=O)C[C@@](O)(C(=O)CO)C[C@@H]3O[C@H]1C[C@H](N)[C@H](O)[C@H](C)O1", "note": "[DOXORUBICIN]", "IC50": 360}
    ]},
    {"tested_on": "EW-18", "experiment": "cells", "format": "functional, cell-based, Homo sapiens", "details": "Homo sapiens, EW-18", "units": {"IC50": "nM"}, "description": "SANGER: Inhibition of human EW-18 cell growth in a cell viability assay.", "values": [
      {"smiles": "COc1cccc2c1C(=O)c1c(O)c3c(c(O)c1C2=O)C[C@@](O)(C(=O)CO)C[C@@H]3O[C@H]1C[C@H](N)[C@H](O)[C@H](C)O1", "note": "[DOXORUBICIN]", "IC50": 251}
    ]},
    {"tested_on": "DSH1", "experiment": "cells", "format": "functional, cell-based, Homo sapiens", "details": "Homo sapiens, DSH1", "units": {"IC50": "nM"}, "description": "SANGER: Inhibition of human DSH1 cell growth in a cell viability assay.", "values": [
      {"smiles": "COc1cccc2c1C(=O)c1c(O)c3c(c(O)c1C2=O)C[C@@](O)(C(=O)CO)C[C@@H]3O[C@H]1C[C@H](N)[C@H](O)[C@H](C)O1", "note": "[DOXORUBICIN]", "IC50": 373}
    ]},
    {"tested_on": "NB69", "experiment": "cells", "format": "functional, cell-based, Homo sapiens", "details": "Homo sapiens, NB69", "units": {"IC50": "nM"}, "description": "SANGER: Inhibition of human NB69 cell growth in a cell viability assay.", "values": [
      {"smiles": "COc1cccc2c1C(=O)c1c(O)c3c(c(O)c1C2=O)C[C@@](O)(C(=O)CO)C[C@@H]3O[C@H]1C[C@H](N)[C@H](O)[C@H](C)O1", "note": "[DOXORUBICIN]", "IC50": 79.2}
    ]}
  ]
}
